Laboratory results from publication PMC7782499, “Progerinin, an optimized progerin-lamin A binding inhibitor, ameliorates premature senescence phenotypes of Hutchinson-Gilford progeria syndrome” (Communications Biology, 2021).
Values joined by “and” are separate entries in the source; they are usually repeats but may differ in a detail not shown here. Equal values may be shown once.

Columns and labels:
progerin = target: T1, progerin (Mus musculus, UniProt P48678, DEL608-657); experiment: Western blot of progerin and H3K9me3 in tissue samples (lung, liver, kidney); format: in vivo; details: for H3K9me3 intensity / Progerin intensity: D011-treated LmnaG609G/+ mice
T1 construct: Lamin A/C and progerin amounts in tissue samples including lung, liver, and kidney; from tissue; host or cells: lung, liver and kidney of Lmna G609G/+ mice
T1 sequence (P48678 with tags, fused parts or gaps DEL608-657): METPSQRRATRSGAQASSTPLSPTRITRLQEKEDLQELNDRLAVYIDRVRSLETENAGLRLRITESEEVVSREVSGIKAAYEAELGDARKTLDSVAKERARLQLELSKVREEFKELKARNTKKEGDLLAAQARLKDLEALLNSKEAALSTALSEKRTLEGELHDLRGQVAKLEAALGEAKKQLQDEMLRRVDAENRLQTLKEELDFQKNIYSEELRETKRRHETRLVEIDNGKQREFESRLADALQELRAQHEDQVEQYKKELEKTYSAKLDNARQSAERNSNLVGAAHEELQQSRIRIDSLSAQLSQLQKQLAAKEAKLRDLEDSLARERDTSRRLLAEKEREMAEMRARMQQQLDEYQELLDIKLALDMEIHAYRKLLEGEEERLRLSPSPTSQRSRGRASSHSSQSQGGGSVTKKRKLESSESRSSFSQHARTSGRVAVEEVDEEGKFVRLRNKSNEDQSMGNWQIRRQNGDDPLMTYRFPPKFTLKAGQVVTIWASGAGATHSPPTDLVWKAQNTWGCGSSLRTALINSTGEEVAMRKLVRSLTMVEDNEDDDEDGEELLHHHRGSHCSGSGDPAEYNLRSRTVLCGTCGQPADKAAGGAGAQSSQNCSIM
Source text: Fig. 4 Oral administration of SLC-D011 suppresses premature aging features. A Gross morphology of SLC-D011-treated (D011) mice at 8 weeks old. Body size of treated mouse was apparently larger than that of the untreated control (Con) mouse. B Oral administration of SLC-D011 increases body weights of Lmna^G609G/G609G mice. Compared with untreated control group, body weight of treated mouse was increased by ~35%, *p < 0.05. C Oral administration of SLC-D011 extends the life span of Lmna^G609G/G609G mouse. SLC-D011 in monoolein-based solution was treated by oral gavage (50 mg/kg, daily) from 5 weeks old. […] E Grip test of Lmna^G609G/+ mice at 41-week-old was performed after administration of SLC-D011 for 6 weeks. The test was repeated 10 times for each mouse (n > 4), **p < 0.001. Data are presented as mean ± SD. F Electrocardiographic analysis of Lmna^G609G/+ mice (untreated: n = 4; SLC-D011: n = 4) and Lmna^+/+ mice (n = 3) after treatment with SLC-D011 for 6 weeks (unpaired t test). Heart rate is shown as beats per minute (bpm). G Dental abnormalities in Lmna^G609G/+ mice (untreated: n = 4; SLC-D011: n = 5) and Lmna^+/+ mice (n = 4). […] Lower incisors of Lmna^G609G transgenic mice grow toward the palate because of malocclusion. Oral administration of SLC-D011 for 6 weeks alleviates dental abnormalities. H Anti-aging effects of single treatment of SLC-D011 or lonafarnib were measured in HGPS patients-derived cells (AG11513, AG03199, AG11498, and AG03198, Coriell Cell Repositories). Single treatment of SLC-D011, compared to lonafarnib, reduced the expression of progerin but induced the expression of H3K9me3 and cyclin B1 in HGPS cells more effectively. HGPS patients-derived cells were treated with SLC-D011 (500 nM) or lonafarnib (500 nM) for 3 days. I Scheme of interaction between lamin A and progerin. SLC-D011 interrupts the interaction between lamin A and progerin through direct binding to the C-terminal region of progerin. “Con” and “untreated” mean vehicle (monoolein-based solution)-treated mouse group or vehicle (DMSO)-treated cells. TEXT PRINTED IN THE PICTURE: (C) D011: Kaplan-Meier survival curve in Lmna^G609G/G609G: Ave=25.2; Kaplan-Meier survival curve in Lmna^G609G/G609G: Max=26 DOUBTS OF THE COPYIST ABOUT THIS PICTURE: Panel C: Ave=25.2 / Max=26 are assigned to D011 only because they are printed beside the solid curve. No unit is printed with them; the x axis reads Age (weeks). / Panel C: Ave=16.8 / Max=18 are printed beside the dashed curve of the control (Con). They are left out because Con is not a substance.
Lamin A/C and progerin amounts in tissue samples including lung, liver, and kidney analysis of two Lmna^+/+, four untreated Lmna^G609G/+, and four D011-treated Lmna^G609G/+ mice were evaluated by western blotting. Proteins were extracted with RIPA lysis buffer supplemented with protease inhibitors. Tissues were sonicated and centrifuged at 15,000 rpm for 15 min at 4 °C. Protein concentration was determined by Coomassie-blue staining. Cellular lysates in SDS-containing sample buffer were inactivated by heating at 98 °C for 7 min. Proteins were loaded onto 8% SDS-PAGE gels and transferred to PVDF membranes. These membranes were blocked with 3% skimmed milk in TBS-T buffer for 1 h and incubated with primary antibodies including mouse monoclonal anti-progerin (1:100; sc-81611; Santa Cruz Biotechnology), mouse monoclonal anti-lamin A/C (1:500; MANLAC1; Developmental Studies Hybridoma Bank), and rabbit polyclonal anti-H3K9me3 (1;2000; Ab8898; Abcam) at 4°C overnight. Blots were then incubated with 1:10,000 goat anti-mouse (Pierce, Thermo Fisher Scientific) or 1:10,000 goat anti-rabbit (Pierce, Thermo Fisher Scientific) IgG (HRP conjugated) in 1% skimmed milk and washed with TBS-T buffer. Bands were developed using and Intron ECL detection system and quantified using Image J (National Institute of Health, NIH).
Fig. S10. […]

HGPS patients = details: trial without placebo; cited from earlier work
[1] = Lmna G609G/+ mice, oral 50 mg/kg daily for 8 weeks

SMILES	H3K9me3 intensity (progerin; Kidney, Ave)	Progerin intensity (progerin; Kidney, Ave)	H3K9me3 intensity (progerin; Kidney, individual replicate)	Progerin intensity (progerin; Kidney, individual replicate)	H3K9me3 intensity (progerin; Liver, Ave)	H3K9me3 intensity (progerin; Liver, individual replicate)	Progerin intensity (progerin; Liver, individual replicate)	H3K9me3 level in tissues (progerin; [1])	Progerin level in tissues (progerin; [1])	Progerin intensity (progerin; Lung, Ave)	H3K9me3 intensity (progerin; Lung, individual replicate)	Progerin intensity (progerin; Lung, individual replicate)	Extension of life span (HGPS patients)
CC1(C)Oc2cc3oc(=O)ccc3cc2C[C@@H]1OC/C=C/c1ccccc1 [SLC-D011]	6.21 AU and 9.731 AU	4.42 AU and 7.581 AU	7.144 AU and 5.202 AU and 6.284 AU and 10.9311 AU and 8.4105 AU and 9.851 AU	5.843 AU and 4.429 AU and 2.988 AU and 9.2 AU and 12.7266 AU and 0.8173 AU	4.595 AU and 7.491 AU	4.833 AU and 4.0316 AU and 4.921 AU and 8.228 AU and 7.116 AU and 7.128 AU	1.2695 AU and 1.954 AU and 0.8023 AU and 0.5773 AU and 0.1521 AU and 0.4975 AU	increase of H3K9me3	Obvious reduction of progerin	1.397 AU and 0.9832 AU	2.3231 AU and 2.511 AU and 2.358 AU and 5.884 AU and 5.376 AU and 5.841 AU	2.376 AU and 1.606 AU and 0.2082 AU and 2.142 AU and 0.6098 AU and 0.1984 AU	
NC(=O)N1CCC(CC(=O)N2CCC([C@H]3c4ncc(Br)cc4CCc4cc(Cl)cc(Br)c43)CC2)CC1 [lonafarnib, reference compound]													~ 2 years
